Test results published in ChEMBL document CHEMBL5120941 (ACS Med Chem Lett, 2022).
Converted amounts (≈) assume the structure as drawn.

How the values were obtained:
[1] = AUC (0 to 24 hrs) in Sprague-Dawley rat at 10 mg/kg, iv by HLPC-MS/MS analysis; format: ADME, organism-based; parameters: time < 24 hr, dose 10 mg/kg, route iv; settings: in vivo
Staphylococcus aureus [2] = assay: Antibacterial activity against Staphylococcus aureus ATCC 19636 infected Sprague-Dawley rat peritonitis model assessed as increase in animal's survival rate administered iv at 1 hr post-infection and measured after 48 hrs; format: functional
[3] = Aqueous solubility of the compound in deionized water at 25 degC; format: physicochemical
Staphylococcus aureus [4] = assay: Antibacterial activity against Staphylococcus aureus ATCC 19636 infected ICR mouse septicemia model assessed as increase in animal's survival rate administered iv at 1 hr post-infection and measured after 48 hrs; format: functional

## O=C1C=CN(c2c(F)cc(N3C[C@H](CNc4ccon4)OC3=O)c(F)c2F)CC1 [CONTEZOLID]
[1]
  AUC(0-t) at 24 h: 25400 ng·h/mL
Staphylococcus aureus [2]
  ED50: 10.3 mg/kg
[3]
  solubility: 200 µg/mL (≈ 490 µM)
Staphylococcus aureus [4]
  ED50: 4.7 mg/kg
